Results reported in US12064412B2 (SUN YAT-SEN UNIVERSITY, priority 2019, dated 2024).

How the values were obtained:
[1] = oral dosage of 21 mg/kg, as reported by documents; cited from earlier work
[2] = oral administration, rat; cited from earlier work
[3] = Phase solubility of naringenin with hydroxypropyl β-cyclodextrin in environments of different pH values; assay type: physicochemical; details: basic pH (8 and 9) versus ultrapure water, same hydroxypropyl β-cyclodextrin concentration (0-16% w/v), 25±1° C., 48 hours
Description: The process of the experimentation on the coating and solubilization of naringenin by hydroxypropyl β-cyclodextrin comprises:
preparing buffer-salt solutions of pH values of 4, 8 and 9 according to the method on a pharmacopoeia, adding different masses of the hydroxypropyl β-cyclodextrin into the buffer-salt solutions of the pH values of 4, 8 and 9 and ultrapure water, to prepare solutions of hydroxypropyl β-cyclodextrin of mass fractions (w/v) of 0, 2, 4, 8 and 16%, adding individually excessive naringenin, shaking in a constant-temperature shaking table at 25±1° C. at 200 rpm for 48 hours, taking out, standing, filtering by using a 0.45 μm microporous filter membranes, removing the primary filtrate, properly diluting the subsequent filtrate, and performing ultraviolet assay.
The detection method comprises, by using ultraviolet-visible spectrophotometry, measuring at the wavelength of 288 nm.
The preparing of a stock solution of the reference substance comprises: precisely weighing an appropriate amount of the naringenin reference substance that has been dried at 105° C. to constant weight, placing in a 10 mL volumetric flask, and dissolving by using methanol to volume, to obtain a stock solution of the reference substance of the concentration of 1 mg/mL. […]

total naringenin concentration in hydroxypropyl β-cyclodextrin solution at basic pH relative to ultrapure water [3]: approximately 3 times
Compound: O=C1C[C@@H](c2ccc(O)cc2)Oc2cc(O)cc(O)c21 [naringenin]
AUC0-t [1]: 15080.4 ng·min/g | Tmax [1]: 2 h | bioavailability, as calculated by the free naringenin [2]: approximately 4%
